The source of these data is patent US20260035339A1, “TETRAHYDRONAPHTHALENE DERIVATIVE” (ATRANSEN PHARMA LTD., priority 2022, published 2026).

Structures are written as SMILES.

The assay concerns the target T1, human LAT2 (Homo sapiens, UniProt Q9UHI5).
T1 construct: having full-length cDNA of human LAT1 or LAT2 inserted under a promoter of CMV; expressed in transfected cells
T1 sequence (Q9UHI5 1-535): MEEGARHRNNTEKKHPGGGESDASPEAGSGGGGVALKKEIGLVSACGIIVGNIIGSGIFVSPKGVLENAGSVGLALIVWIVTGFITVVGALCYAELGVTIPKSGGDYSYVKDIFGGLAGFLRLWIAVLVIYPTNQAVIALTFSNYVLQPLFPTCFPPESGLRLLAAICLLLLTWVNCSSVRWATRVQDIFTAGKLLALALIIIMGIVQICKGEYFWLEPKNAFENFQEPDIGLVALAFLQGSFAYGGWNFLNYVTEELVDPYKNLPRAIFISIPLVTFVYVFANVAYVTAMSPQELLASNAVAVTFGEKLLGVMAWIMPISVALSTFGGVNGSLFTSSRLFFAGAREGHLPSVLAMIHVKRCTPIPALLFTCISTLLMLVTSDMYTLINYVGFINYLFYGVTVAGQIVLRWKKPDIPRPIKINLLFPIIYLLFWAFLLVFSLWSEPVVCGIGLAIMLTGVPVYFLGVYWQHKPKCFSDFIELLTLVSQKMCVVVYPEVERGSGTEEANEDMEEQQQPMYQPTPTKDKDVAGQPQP
T1 sequence (P08195 1-529 partner): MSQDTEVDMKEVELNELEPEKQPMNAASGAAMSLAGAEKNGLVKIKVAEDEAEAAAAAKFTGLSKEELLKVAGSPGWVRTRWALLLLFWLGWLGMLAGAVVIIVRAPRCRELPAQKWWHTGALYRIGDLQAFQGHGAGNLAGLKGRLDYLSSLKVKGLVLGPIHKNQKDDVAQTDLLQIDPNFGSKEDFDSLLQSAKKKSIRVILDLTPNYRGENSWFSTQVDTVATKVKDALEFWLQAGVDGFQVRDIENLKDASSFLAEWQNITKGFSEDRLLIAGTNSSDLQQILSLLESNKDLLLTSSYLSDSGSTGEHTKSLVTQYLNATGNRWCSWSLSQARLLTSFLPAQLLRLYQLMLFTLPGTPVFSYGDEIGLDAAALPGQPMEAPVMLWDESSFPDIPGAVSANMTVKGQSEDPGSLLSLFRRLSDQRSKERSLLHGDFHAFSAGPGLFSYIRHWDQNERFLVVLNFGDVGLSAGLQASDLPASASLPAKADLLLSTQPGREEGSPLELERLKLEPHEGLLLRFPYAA
Put plainly: [14C]L-alanine uptake inhibition test using human-LAT2 stably expressing HEK293 cell line. It counts as cell-based. An excerpt:
HEK293 cells stably expressing human LAT1 and LAT2 were produced, respectively.
A shuttle vector DNA (LAT1: pcDNA3.1(+) -hLAT1, LAT2: pcDNA3.1(+) -hLAT2; expression vector pcDNA3.1 (+) was produced by Invitrogen Corp.) having ampicillin and neomycin resistance markers and having full-length cDNA of human LAT1 or LAT2 inserted under a promoter of CMV (cytomegalovirus) was constructed. This vector was transfected into the HEK293 cells by a method using Lipofectamine (registered trademark) 2000 (Invitrogen Corp.) according to the manufacturer's instructions. […]
[^14C]L-alanine uptake inhibition using the compound of Example 1-1 was performed using the human-LAT2 stably expressing HEK293 cell line. In the same manner as in the [^14C]L-leucine uptake inhibition experiment in the human-LAT1 stably expressing HEK293 cell line, the human-LAT2 stably expressing HEK293 cell line was seeded in a 24-well plate at 1×10^5 Cell/Well, and after 48 hours, 1 μM of [^14C]L-alanine was taken up in Na^+-free HBSS in the presence of the compound (0.1, 1.0, 10, 0 μM in each case), which is a racemic form, of Example 1-1 for 1 minute, then the uptake amount of [^14C]L-alanine and the protein amount of the cell lysate were measured, and the uptake amount of [^14C]L-alanine per 1 mg of protein in the cell per minute was determined.

For the compound `NC1(C(=O)O)CCc2ccc(Oc3ccc4ccccc4c3)cc2C1` (centres unmarked) [Example 1-1, 2-carboxy-7-(naphthalene-2-yloxy)-1,2,3,4-tetrahydronaphthalene-2-aminium chloride], where the note is “LAT2 versus LAT1 stably expressing HEK293 cell line”, the “inhibitory action on LAT2 alanine uptake compared with LAT1 leucine uptake inhibition” value is on record as “weaker inhibitory action”. Further, the IC50 (racemic form, 1 μM [14C]L-alanine, 1 minute, Na+-free HBSS, read-out: 50% suppression concentration, [14C]L-alanine uptake) is around 1 µM.
